Reference: ChEMBL document CHEMBL1201862, “PubChem BioAssay data set” (2004)
The source made the active and inactive calls.

Legend:
[1] = control 3'UTR Renilla luciferase suppression, dose response, counter-screen for Shn3 inhibitor project, cell-based, Clone20-Shn3RL, cherry-picked (AID 624133); format: functional
[2] = HepG2 cell cytotoxicity, dose response, cytotoxicity control for Shn3 inhibitor project, CellTiter-Glo, cherry-picked (AID 624134); format: functional, cell-based
[3] = Shn3 3'UTR reporter inhibitors, dose response, cell-based, Clone20 osteoblasts, firefly luciferase, cherry-picked (AID 624132); format: functional;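 note: firefly luciferase luminescence from reporter carrying the Shn3 3'UTR in osteoblasts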
[4] = reduction of Shn3 3'UTR firefly luciferase signal, dose response, Schnurri-3 inhibitor project, cell-based, Clone20 osteoblasts, cherry-pick, set 2 (AID 720490); format: functional;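 note: actives lower the luminescence signal as inhibitors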
[5] = HEK293 Cytotoxicity Assay Measured in Cell-Based System Using Plate Reader - 7071-01_Inhibitor_Dose_CherryPick_Activity_Set2.; format: functional
HEK293 = assay: HEK293T cell cytotoxicity, dose response, cytotoxicity control, ATP luminescence, cherry-pick samples (AID 687005); format: functional, cell-based; conditions: Homo sapiens;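 note: cells exposed to compound for 48 hours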
[6] = Late-stage results from the probe development effort to identify antagonists of arginine vasopressin receptor 1a (AVPR1a): fluorescence-based cell-based dose response OXTR inhibition counterscreen assay.; format: functional
Vasopressin V2 receptor = Vasopressin V2 receptor (Homo sapiens, UniProt P30518); assay: Late-stage results from the probe development effort to identify antagonists of arginine vasopressin receptor 1a (AVPR1a): fluorescence-based cell-based dose response AVPR2 inhibition counterscreen assay.; format: functional
Chain of Vasopressin V2 receptor (P30518 whole entry): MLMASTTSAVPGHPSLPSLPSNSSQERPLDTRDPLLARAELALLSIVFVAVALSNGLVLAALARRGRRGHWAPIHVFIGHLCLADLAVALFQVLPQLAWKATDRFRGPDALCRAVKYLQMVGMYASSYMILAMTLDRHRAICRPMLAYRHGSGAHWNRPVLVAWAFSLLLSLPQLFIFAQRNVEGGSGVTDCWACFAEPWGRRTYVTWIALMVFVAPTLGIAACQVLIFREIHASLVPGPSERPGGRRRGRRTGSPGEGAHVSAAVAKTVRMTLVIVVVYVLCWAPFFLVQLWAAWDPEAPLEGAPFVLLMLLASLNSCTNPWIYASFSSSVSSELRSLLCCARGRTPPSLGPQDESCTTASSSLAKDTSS

[7] = Late-stage results from the probe development effort to identify antagonists of arginine vasopressin receptor 1a (AVPR1a): fluorescence-based cell-based dose response AVPR1a inhibition assay.; format: functional
Vasopressin V1b receptor = Vasopressin V1b receptor (Homo sapiens, UniProt P47901); assay: Late-stage results from the probe development effort to identify antagonists of arginine vasopressin receptor 1a (AVPR1a): fluorescence-based cell-based dose response AVPR1b inhibition counterscreen assay.; format: functional
Chain of Vasopressin V1b receptor (P47901 whole entry): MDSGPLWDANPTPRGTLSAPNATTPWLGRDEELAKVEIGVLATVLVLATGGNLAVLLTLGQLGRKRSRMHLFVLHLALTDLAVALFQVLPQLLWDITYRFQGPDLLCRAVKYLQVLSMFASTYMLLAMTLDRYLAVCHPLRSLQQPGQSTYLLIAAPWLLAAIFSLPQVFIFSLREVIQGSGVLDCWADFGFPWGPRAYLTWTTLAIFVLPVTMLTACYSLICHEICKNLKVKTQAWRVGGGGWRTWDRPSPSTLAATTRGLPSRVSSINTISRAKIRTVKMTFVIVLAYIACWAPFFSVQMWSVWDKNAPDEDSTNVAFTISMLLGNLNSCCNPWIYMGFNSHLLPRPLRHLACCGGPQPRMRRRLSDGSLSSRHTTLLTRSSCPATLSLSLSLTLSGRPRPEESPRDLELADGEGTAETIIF

[8] = A2780 ovarian cancer cell cytotoxicity, dose response, cytotoxicity control, plate reader, dry powder samples (AID 743046); format: functional, cell-based
[9] = P. falciparum Dd2 growth inhibitors, dose response, SYBR Green, cherry-picked samples (AID 1159567); format: functional, cell-based
[10] = non-specific cell cytotoxicity, dose response, cytotoxicity control for PAX8 inhibitor project, plate reader, dry powder samples (AID 743021); format: functional, cell-based
[11] = IGROV1 ovarian cancer cell cytotoxicity, dose response, PAX8 inhibitor project, plate reader, dry powder samples (AID 743043); format: functional, cell-based; conditions: IGROV-1
[12] = HepG2 cell cytotoxicity, dose response, cytotoxicity control, cherry-picked samples (AID 1159577); format: functional, cell-based

SMILES: Cc1ccc([C@@H]2CC(=O)[C@@H]3CN(S(=O)(=O)c4ccccc4C)[C@H](c4ccc(Cl)cc4)C[C@@H]3N2S(=O)(=O)c2ccc(C)cc2)cc1
- AC50 [1]: 3.29 µM (active)
- AC50 [2]: 36.7 µM (active)
- AC50 [3]: 0.361 µM (active)
- AC50 [4]: 0.672 µM (active)

SMILES: CN1C(=O)c2cc(NC(=O)NC3CCCC3)ccc2OC[C@H]2O[C@@H](CC(=O)NCC3CC3)CC[C@@H]21
- AC50 [5]: > 57 µM (inactive)
- AC50 (HEK293): > 57 µM (inactive)

SMILES: Cc1noc(C)c1NC(=O)Nc1ccc2c(c1)C(=O)N([C@H](C)CO)C[C@@H](C)[C@H](CN(C)S(C)(=O)=O)OCCCC[C@@H](C)O2
- AC50 [5]: 16.3 µM (active)
- AC50 (HEK293): 16.3 µM (active)

SMILES: O=C(C1CCN(c2ncccc2Cl)CC1)N(CC1CC1)c1ccc(Cl)cc1
- IC50 [6]: 1.7 µM (active)
- IC50 (Vasopressin V2 receptor): 11.3 µM (inactive)
- IC50 [7]: 0.0232 µM (active)
- IC50 (Vasopressin V1b receptor): 7.1 µM (active)

SMILES: Cc1ccc(-c2ccc([C@@H]3[C@@H]4CN(Cc5ccccc5F)C[C@H]3N4)cc2)cc1
- AC50 [8]: 63.6 µM (active)
- AC50 [9]: 4.05 µM (active)
- AC50 [10]: 13.2 µM (active)
- AC50 [11]: 55.4 µM (active)
- AC50 [12]: 10.3 µM (active)
